Our source for the MIC values is US9796686B2, “Antibacterial quinazoline-4(3H)-one derivatives” (priority 2014, dated 2017).

≈ marks a conversion by molar mass, not a printed value.

What all share (assay): Bacterial growth minimal inhibitory concentration, microdilution in cation-adjusted Mueller-Hinton Broth (CLSI M7-A7)
Format in all cases: cell-based
For orientation: Broth dilution looks for growth in wells or tubes with falling amounts of substance.

For assay [1], the system named is E. coli ATCC25922. Conditions: Escherichia coli, ATCC25922; quinolone-sensitive strain; read-out: MIC for E. coli ATCC25922. On the procedure: (§1) Minimal Inhibitory Concentrations (MICs; mg/L) were determined in cation-adjusted Mueller-Hinton Broth by a microdilution method following the description given in “Methods for Dilution Antimicrobial Susceptibility Tests for Bacteria that Grow Aerobically”, Approved standard, 7th ed., Clinical and Laboratory Standards Institute (CLSI) Document M7-A7, Wayne, Pa., U.S.A. (2006).
(§2) All Example compounds were tested against several Gram-positive and Gram-negative bacteria. […] K. pneumoniae A-651 is a multiply-resistant strain (in particular quinolone-resistant), while E. coli ATCC25922 and P. aeruginosa ATCC27853 are quinolone-sensitive strains.

Assay [2] concerns K. pneumoniae A-651. Particulars: Klebsiella pneumoniae, A651; multiply-resistant strain (in particular quinolone-resistant); read-out: MIC for K. Pneumoniae A-651. The procedure:
as §1, §2

Assay [3] has as its system P. aeruginosa ATCC27853. Particulars: Pseudomonas aeruginosa, ATCC27853; quinolone-sensitive strain; read-out: MIC for P. aeruginosa ATCC27853. On the procedure: as §1, §2

As usually defined, the MIC is the least concentration at which growth counts as inhibited. Take `C[C@@](CCn1cnc2cc(C#CC#C[C@@]3(F)C[C@@H]3CO)ccc2c1=O)(C(=O)NO)S(C)(=O)=O` (relative stereo) [Example 30, (R)-4-(7-(((1R*,2R*)-1-fluoro-2-(hydroxymethyl)cyclopropyl)buta-1,3-diyn-1-yl)-4-oxoquinazolin-3(4H)-yl)-N-hydroxy-2-methyl-2-(methylsulfonyl)butanamide]: the MIC in assay [1] worked out at 0.25 µg/mL (≈ 0.526 µM); in assay [2], 0.5 µg/mL (≈ 1.05 µM); in assay [3] it was 1 µg/mL (≈ 2.1 µM).
As for `CC(CCn1cnc2cc(-c3ccc(OCCN4CCOCC4)cc3F)ccc2c1=O)(C(=O)NO)S(C)(=O)=O.O=CO` (racemic) [RE3, (RS)-4-(7-(2-fluoro-4-(2-morpholinoethoxy)phenyl)-4-oxoquinazolin-3(4H)-yl)-N-hydroxy-2-methyl-2-(methylsulfonyl)butanamide formate], the MIC in assay [1] came out at 2 µg/mL; in assay [2], 4 µg/mL; in assay [3], 16 µg/mL.
The like results for `C[C@@](CCn1cnc2cc(C#CC#C[C@H]3C[C@@H]3CO)c(F)cc2c1=O)(C(=O)NO)S(C)(=O)=O` [Example 9, (R)-4-(6-fluoro-7-(((1S,2S)-2-(hydroxymethyl)cyclopropyl)buta-1,3-diyn-1-yl)-4-oxoquinazolin-3(4H)-yl)-N-hydroxy-2-methyl-2-(methylsulfonyl)butanamide] were, in that order, 0.125 µg/mL (≈ 0.263 µM), 0.25 µg/mL (≈ 0.526 µM) and 1 µg/mL (≈ 2.1 µM).
On to `C[C@]1(CO)C[C@@H]1C#CC#Cc1ccc2c(=O)n(CC[C@](C)(C(=O)NO)S(C)(=O)=O)cnc2c1` [Example 24, (R)-N-hydroxy-4-(7-(((1R,2S)-2-(hydroxymethyl)-2-methylcyclopropyl)buta-1,3-diyn-1-yl)-4-oxoquinazolin-3(4H)-yl)-2-methyl-2-(methylsulfonyl)butanamide], for which the MIC in assay [1] is 0.25 µg/mL (≈ 0.53 µM); in assay [2], 0.25 µg/mL (≈ 0.53 µM); in assay [3] it was 1 µg/mL (≈ 2.12 µM).
`CC(CCn1cnc2cc(C#Cc3ccc(CO)cc3)ccc2c1=O)(C(=O)NO)S(C)(=O)=O` (racemic) [RE10, (RS)-N-hydroxy-4-(7-((4-(hydroxymethyl)phenyl)ethynyl)-4-oxoquinazolin-3(4H)-yl)-2-methyl-2-(methylsulfonyl)butanamide]: the results for the MIC in assay [1], in assay [2] and in assay [3] were 0.25 µg/mL (≈ 0.532 µM), 1 µg/mL (≈ 2.13 µM) and 16 µg/mL (≈ 34.1 µM), respectively.
In the same order, the values of `CC(CCn1cnc2cc(-c3ccccc3)c(F)cc2c1=O)(C(=O)NO)S(C)(=O)=O` (racemic) [RE9, (RS)-4-(6-fluoro-4-oxo-7-phenylquinazolin-3(4H)-yl)-N-hydroxy-2-methyl-2-(methylsulfonyl)butanamide] are 0.25 µg/mL (≈ 0.577 µM), ≤ 0.063 µg/mL and 16 µg/mL (≈ 36.9 µM).
Regarding `CC(CCn1cnc2cc(-c3ccc(OCCCN4CCOCC4)cc3)ccc2c1=O)(C(=O)NO)S(C)(=O)=O.O=CO` (racemic) [RE2, (RS)-N-hydroxy-2-methyl-2-(methylsulfonyl)-4-(7-(4-(3-morpholinopropoxy)phenyl)-4-oxoquinazolin-3(4H)-yl)butanamide formate], the MIC in assay [1] turned out to be 1 µg/mL; in assay [2], 2 µg/mL; in assay [3] it was 8 µg/mL.
In the same order, the values of `C[C@@](CCn1cnc2cc(C#CC#CC3(N)CC3)ccc2c1=O)(C(=O)NO)S(C)(=O)=O.O=CO` [Example 25, (R)-4-(7-((1-aminocyclopropyl)buta-1,3-diyn-1-yl)-4-oxoquinazolin-3(4H)-yl)-N-hydroxy-2-methyl-2-(methylsulfonyl)butanamide formate] are 0.25 µg/mL, 0.5 µg/mL and 1 µg/mL.
For `C[C@@](CCn1cnc2cc(C#CC#C[C@@H](O)CO)ccc2c1=O)(C(=O)NO)S(C)(=O)=O` [Example 10, (R)-4-(7-((R)-5,6-dihydroxyhexa-1,3-diyn-1-yl)-4-oxoquinazolin-3(4H)-yl)-N-hydroxy-2-methyl-2-(methylsulfonyl)butanamide], the MIC in assay [1] was found to be 8 µg/mL (≈ 17.9 µM); in assay [2], 8 µg/mL (≈ 17.9 µM); in assay [3] it was 4 µg/mL (≈ 8.94 µM).
In the case of `C[C@@](CCn1cnc2cc(C#Cc3ccc(C4(CO)CC4)cc3)ccc2c1=O)(C(=O)NO)S(C)(=O)=O` [Example 16, (R)-N-hydroxy-4-(7-((4-(1-(hydroxymethyl)cyclopropyl)phenyl)ethynyl)-4-oxoquinazolin-3(4H)-yl)-2-methyl-2-(methylsulfonyl)butanamide], the MIC in assay [1] amounted to 0.125 µg/mL (≈ 0.245 µM); in assay [2], 0.25 µg/mL (≈ 0.491 µM); in assay [3], 4 µg/mL (≈ 7.85 µM).
On to `C[C@@](CCn1cnc2cc(C#CC#CC3(CO)CCC3)c(F)cc2c1=O)(C(=O)NO)S(C)(=O)=O` [Example 34, (R)-4-(6-fluoro-7-((1-(hydroxymethyl)cyclobutyl)buta-1,3-diyn-1-yl)-4-oxoquinazolin-3(4H)-yl)-N-hydroxy-2-methyl-2-(methylsulfonyl)butanamide], for which the results for the MIC in assay [1], in assay [2] and in assay [3] were 0.25 µg/mL (≈ 0.511 µM), 1 µg/mL (≈ 2.04 µM) and 2 µg/mL (≈ 4.09 µM), respectively.
As for `CC(CCn1cnc2cc(-c3ccc(OCCCN4CCOCC4)cc3F)ccc2c1=O)(C(=O)NO)S(C)(=O)=O.O=CO` (racemic) [RE1, (RS)-4-(7-(2-fluoro-4-(3-morpholinopropoxy)phenyl)-4-oxoquinazolin-3(4H)-yl)-N-hydroxy-2-methyl-2-(methylsulfonyl)butanamide formate], the minimal inhibitory concentration (MIC) in assay [1] came out at 1 µg/mL; in assay [2], 2 µg/mL; in assay [3], 16 µg/mL.
As for `C[C@@](CCn1cnc2cc(C#CC#C[C@@H]3C[C@H]3CO)ccc2c1=O)(C(=O)NO)S(C)(=O)=O` [Example 5, (R)-N-hydroxy-4-(7-(((1R,2R)-2-(hydroxymethyl)cyclopropyl)buta-1,3-diyn-1-yl)-4-oxoquinazolin-3(4H)-yl)-2-methyl-2-(methylsulfonyl)butanamide], the MIC is ≤ 0.063 µg/mL in assay [1], 0.25 µg/mL (≈ 0.546 µM) in assay [2] and 1 µg/mL (≈ 2.19 µM) in assay [3].
In the case of `C[C@@](CCn1cnc2cc(C#Cc3ccc(OCCO)cc3)ccc2c1=O)(C(=O)NO)S(C)(=O)=O` [Example 14, (R)-N-hydroxy-4-(7-((4-(2-hydroxyethoxy)phenyl)ethynyl)-4-oxoquinazolin-3(4H)-yl)-2-methyl-2-(methylsulfonyl)butanamide], the results for the MIC in assay [1], in assay [2] and in assay [3] were 0.25 µg/mL (≈ 0.5 µM), 0.5 µg/mL (≈ 1 µM) and 16 µg/mL (≈ 32 µM), respectively.
Regarding `C[C@@](CCn1cnc2cc(C#CC#C[C@@H]3C[C@H]3[C@H](O)CO)ccc2c1=O)(C(=O)NO)S(C)(=O)=O` [Example 26, (R)-4-(7-(((1R,2R)-2-((S)-1,2-dihydroxyethyl)cyclopropyl)buta-1,3-diyn-1-yl)-4-oxoquinazolin-3(4H)-yl)-N-hydroxy-2-methyl-2-(methylsulfonyl)butanamide], the MIC in assay [1], in assay [2] and in assay [3] was 1 µg/mL (≈ 2.05 µM) each time.
As to `C[C@@](CCn1cnc2c(F)c(C#CC#C[C@@H]3C[C@H]3CO)ccc2c1=O)(C(=O)NO)S(C)(=O)=O` [Example 21, (R)-4-(8-fluoro-7-(((1R,2R)-2-(hydroxymethyl)cyclopropyl)buta-1,3-diyn-1-yl)-4-oxoquinazolin-3(4H)-yl)-N-hydroxy-2-methyl-2-(methylsulfonyl)butanamide], the MIC came to 0.25 µg/mL (≈ 0.526 µM) in assay [1], 0.5 µg/mL (≈ 1.05 µM) in assay [2] and 4 µg/mL (≈ 8.41 µM) in assay [3].
The like results for `COc1cccc(-c2ccc3c(=O)n(CCC(C)(C(=O)NO)S(C)(=O)=O)cnc3c2)c1F` (racemic) [RE4, (RS)-4-(7-(2-fluoro-3-methoxyphenyl)-4-oxoquinazolin-3(4H)-yl)-N-hydroxy-2-methyl-2-(methylsulfonyl)butanamide] were, in that order, 0.125 µg/mL (≈ 0.27 µM), ≤ 0.063 µg/mL and 8 µg/mL (≈ 17.3 µM).
With `C[C@@](CCn1cnc2cc(C#Cc3ccc(CCO)cc3)ccc2c1=O)(C(=O)NO)S(C)(=O)=O` [Example 8, (R)-N-hydroxy-4-(7-((4-(2-hydroxyethyl)phenyl)ethynyl)-4-oxoquinazolin-3(4H)-yl)-2-methyl-2-(methylsulfonyl)butanamide], the minimal inhibitory concentration (MIC) in assay [1] was determined as 0.125 µg/mL (≈ 0.259 µM); in assay [2], 0.25 µg/mL (≈ 0.517 µM); in assay [3], 4 µg/mL (≈ 8.27 µM).
The like results for `CC(CCn1cnc2cc(C#Cc3ccc(C4(O)COC4)cc3)ccc2c1=O)(C(=O)NO)S(C)(=O)=O` (racemic) [RE11, (RS)-N-hydroxy-4-(7-((4-(3-hydroxyoxetan-3-yl)phenyl)ethynyl)-4-oxoquinazolin-3(4H)-yl)-2-methyl-2-(methylsulfonyl)butanamide] were, in that order, 1 µg/mL (≈ 1.95 µM), 1 µg/mL (≈ 1.95 µM) and 8 µg/mL (≈ 15.6 µM).
Consider `C[C@@](CCn1cnc2cc(C#CC#C[C@H]3C[C@]3(F)CO)ccc2c1=O)(C(=O)NO)S(C)(=O)=O` (relative stereo) [Example 33, (R)-4-(7-(((1R*,2R*)-2-fluoro-2-(hydroxymethyl)cyclopropyl)buta-1,3-diyn-1-yl)-4-oxoquinazolin-3(4H)-yl)-N-hydroxy-2-methyl-2-(methylsulfonyl)butanamide], for which the MIC in assay [1] is 0.25 µg/mL (≈ 0.526 µM); in assay [2], 0.5 µg/mL (≈ 1.05 µM); in assay [3], 0.5 µg/mL (≈ 1.05 µM).
On to `CC(CCn1cnc2cc(C#Cc3ccc(CN4CCOCC4)cc3)ccc2c1=O)(C(=O)NO)S(C)(=O)=O.O=CO` (racemic) [RE12, (RS)-N-hydroxy-2-methyl-2-(methylsulfonyl)-4-(7-((4-(morpholinomethyl)phenyl)ethynyl)-4-oxoquinazolin-3(4H)-yl)butanamide formate], for which the MIC in assay [1] amounted to 0.5 µg/mL; in assay [2], 0.5 µg/mL; in assay [3], 16 µg/mL.
